# Measurements taken from patent publication US20130137701A1, “COMBINATION” (priority 2010, published 2013).
# Like-named read-outs stand apart in the source and are kept apart here.
# Tests used:
# BT-474 = test: Cell growth inhibition assay (Cell Titer Glo); format: cell-based, Human; conditions: BT-474, Breast, HER2+, PIK3CA K111N, 3 days, read-out: Single Agent (IC50)
# Description: (§1) All cells were cultured without lapatinib for a minimum of 72 hours prior to cell plating. Cells were assayed in a 96-well tissue culture plate (NUNC 136102) of RPMI medium containing 10
# (§2) % FBS for all cells at 2,000 cells per well except KPL4, which were plated in DMEM containing 5% FBS at 500 cells per well. […] Cells were incubated in the presence of compounds for 3 days. ATP levels were determined by adding Cell Titer Glo® (Promega) according to the manufacturer's protocol. Briefly, Cell Titer Glo® was added each plate, incubated for 20 minutes then luminescent signal was read on the SpectraMax L plate reader with a 0.5 sec integration time.
# (§3) Inhibition of cell growth was estimated after treatment with compound or combination of compounds for three days and comparing the signal to cells treated with vehicle (DMSO). Cell growth was calculated relative to vehicle (DMSO) treated control wells. Concentration of compound that inhibits 50% of control cell growth (IC50) was interpolated using nonlinear regression with the equation, y=(A+(B−A)/(1+(C/x)̂D)))), where A is the minimum response (ymin), B is the maximum response (ymax), C is the inflection point of the curve (EC50) and D is the Hill coefficient. […]
# CHL-1 = test: Cell growth inhibition assay (Cell Titer Glo); format: cell-based, Human; conditions: CHL-1, Melanoma, HER−, PIK3CA WT, 3 days, read-out: Single Agent (IC50)
# Description: as §1, §2, §3
# HCC202 = test: Cell growth inhibition assay (Cell Titer Glo); format: cell-based, Human; conditions: HCC202, Breast, HER2+, PIK3CA E545K, 3 days; for IC50: read-out: Single Agent (IC50)
# Description: as §1, §2, §3
# KPL4 = test: Cell growth inhibition assay (Cell Titer Glo); format: cell-based, Human; conditions: KPL4, Breast, HER2+, PIK3CA H1047R, 3 days, read-out: Single Agent (IC50)
# Description: as §1, §2, §3
# MDA-MB-361 = test: Cell growth inhibition assay (Cell Titer Glo); format: cell-based, Human; conditions: MDA-MB-361 (resistant line), Breast, HER2+, PIK3CA E545K, 3 days; for IC50: Homo sapiens, 72 h, read-out: Single Agent (IC50)
# Description: as §1, §2, §3
# MDA-MB-453 = test: Cell growth inhibition assay (Cell Titer Glo); format: cell-based, Human; conditions: MDA-MB-453, Breast, HER2+, PIK3CA H1047R, 3 days; for IC50: Homo sapiens, 72 h, read-out: Single Agent (IC50)
# Description: as §1, §2, §3
# UACC893 = test: Cell growth inhibition assay (Cell Titer Glo); format: cell-based, Human; conditions: UACC893, Breast, HER2+, PIK3CA H1047R, 3 days, read-out: Single Agent (IC50)
# Description: as §1, §2, §3
# ZR-75-1 = test: Cell growth inhibition assay (Cell Titer Glo); format: cell-based, Human; conditions: ZR-75-1, Breast, HER−, PIK3CA WT, 3 days, read-out: Single Agent (IC50)
# Description: as §1, §2, §3
# SK-BR-3-W13 = test: Cell growth inhibition assay (Cell Titer Glo); format: cell-based; conditions: Homo sapiens, 72 h; SK-BR-3-W13 (resistant line), Breast, HER2+, PIK3CA WT; 3 days; read-out: Single Agent (IC50)
# Description: (§4) JIMT-1 is a line derived from a patient clinically resistant to trastuzumab (Herceptin®). SK-BR-3-W13 is a single cell clone isolated by a cloning cylinder after a single treatment of SK-BR-3 cells with 0.5 μM lapatinib. BT-474-J4 is a single cell clone derived from a culture of BT-474 cells that were selected to grow in lapatinib to a concentration of 3 μM.
# as §1, §2, §3
# JIMT-1 = test: Cell growth inhibition assay (Cell Titer Glo); format: cell-based, Human; conditions: JIMT-1 (resistant line), Breast, HER2+, PIK3CA WT, 3 days, read-out: Single Agent (IC50)
# Description: as §4, §1, §2, §3
# [1] = tested on: caspase 3/7 activity in BT474 cells; test: Cell apoptosis assay, caspase-3/7 activation (Caspase Glo 3/7); format: cell-based, Human; conditions: 24 h post treatment
# Description: as §4
# (§5) For investigation of the induction of apoptosis, cells were plated at 5,000 cells per well in a 96-well tissue culture plate and allowed to attach for approximately 24 hours. Cells were then treated with compounds as described above. 24 hours after compound treatment, the levels of active caspase 3 and caspase 7 were determined with the Caspase Glo™ 3/7 (Promega, cat G8093) according to the instructions provided by the manufacturer. 48 hours after treatment with compound, levels of apoptosis were estimated using the Roche Cell Death ELISA (Cat. No. 11 774 425 001) following the instructions provided by the manufacturer.
# [2] = tested on: caspase 3/7 activity in HCC1419 cells; test: as above; format: cell-based, Human; conditions: 24 h post treatment
# Description: as §4, §5
# [3] = tested on: caspase 3/7 activity in UACC893 cells; test: as above; format: cell-based, Human; conditions: 24 h post treatment
# Description: as §4, §5
# HCC1937 = test: Cell growth inhibition assay (Cell Titer Glo); format: cell-based, Human; conditions: HCC1937, Breast, HER−, PIK3CA WT; 3 days; read-out: Single Agent (IC50)
# Description: as §1, §2, §3
# MDA-MB-175-VII = test: Cell growth inhibition assay (Cell Titer Glo); format: cell-based, Human; conditions: Breast, HER−, PIK3CA WT, 3 days, read-out: Single Agent (IC50)
# Description: as §1, §2, §3
# SK-BR-3 = test: Cell growth inhibition assay (Cell Titer Glo); format: cell-based, Human; conditions: SK-BR-3, Breast, HER2+, PIK3CA WT, 3 days, read-out: Single Agent (IC50)
# Description: as §1, §2, §3
# BT-474-J4 = test: Cell growth inhibition assay (Cell Titer Glo); format: cell-based; conditions: Homo sapiens, 72 h, BT-474-J4 (resistant line), Breast, HER2+, PIK3CA K111N; 3 days; read-out: Single Agent (IC50)
# Description: as §4, §1, §2, §3
smiles,measurement,setting,value
"COc1ncc(-c2ccc3nccc(-c4ccnnc4)c3c2)cc1NS(=O)(=O)c1ccc(F)cc1F [Compound B, 2,4-difluoro-N-{2-(methyloxy)-5-[4-(4-pyridazinyl)-6-quinolinyl]-3-pyridinyl}benzenesulfonamide]",IC50,BT-474,28 nM
same,IC50,"BT-474; Homo sapiens, BT-474, 72 h",< 50 nM
same,IC50,CHL-1,38 nM
same,IC50,"CHL-1; Homo sapiens, CHL-1, 72 h",< 40 nM
same,IC50,HCC202,206 nM
same,IC50,"HCC202; Homo sapiens, HCC202, 72 h",200 nM
same,IC50,"KPL4; Homo sapiens, KPL4, 72 h",< 5 nM
same,IC50,KPL4,3 nM
same,IC50,MDA-MB-361,9 nM
same,IC50,MDA-MB-453,15 nM
same,IC50,"UACC893; Homo sapiens, UACC-893, 72 h",< 5 nM
same,IC50,UACC893,5 nM
same,IC50,"ZR-75-1; Homo sapiens, ZR-75-1, 72 h",10 to 1300 nM
same,IC50,ZR-75-1,12 nM
same,IC50,SK-BR-3-W13,167 nM
same,IC50,"JIMT-1; Homo sapiens, JIMT-1, 72 h",< 30 nM
same,IC50,JIMT-1,28 nM
same,caspase 3/7 activity,[1],increased caspase 3/7 activity
same,caspase 3/7 activity,[2],slight increase in caspase 3/7 activity
same,caspase 3/7 activity,[3],increased caspase 3/7 activity
"CS(=O)(=O)CCNCc1ccc(-c2ccc3ncnc(Nc4ccc(OCc5cccc(F)c5)c(Cl)c4)c3c2)o1 [Compound A, N-{3-Chloro-4-[(3-fluorobenzyl)oxy]phenyl}-6-[5-({[2-(methanesulphonyl)ethyl]amino}methyl)-2-furyl]-4-quinazolinamine ditosylate monohydrate]",IC50,BT-474; ditosylate monohydrate,241 nM
same,IC50,"BT-474; Homo sapiens, BT-474, 72 h",< 200 nM
same,IC50,HCC1937,> 1000 nM
same,"Single Agent (IC50, μM)",HCC202,less sensitive
same,IC50,"HCC202; Homo sapiens, HCC202, 72 h",4630 nM
same,IC50,MDA-MB-175-VII; ditosylate monohydrate,106 nM
same,IC50,"MDA-MB-175-VII; Homo sapiens, 72 h",< 200 nM
same,IC50,MDA-MB-361,> 10000 nM
same,"Single Agent (IC50, μM)",MDA-MB-361,less sensitive
same,IC50,MDA-MB-453,2470 nM
same,"Single Agent (IC50, μM)",MDA-MB-453,less sensitive
same,IC50,"SK-BR-3; Homo sapiens, SK-BR-3, 72 h",< 200 nM
same,IC50,SK-BR-3; ditosylate monohydrate,312 nM
same,IC50,"UACC893; Homo sapiens, UACC-893, 72 h",< 1000 nM
same,IC50,UACC893; ditosylate monohydrate,1070 nM
same,IC50,BT-474-J4,3540 nM
same,IC50,SK-BR-3-W13,7110 nM
same,IC50,"JIMT-1; Homo sapiens, JIMT-1, 72 h",9620 nM
same,caspase 3/7 activity,[1],increased caspase 3/7 activity
same,caspase 3/7 activity,[2],slight increase in caspase 3/7 activity
same,caspase 3/7 activity,[3],increased caspase 3/7 activity
